Experimental findings from patent publication US20250288558A1, “THERAPEUTIC FOR SPINAL CORD INJURY TO INDUCE HYPOTHERMIA” (The Trustees of Indiana University, priority 2024, published 2025) are described below.

Where a name gives a salt, the structure may show the parent alone.

This experiment relates to mouse with a SCI. Here is the method:
Referring to FIGS. 5A-5C, to evaluate the coordination of bladder and external urethral sphincter, urodynamic recordings were performed. Bladder cystometrograph (CMG) and external urethral sphincter electromyography (EMG) were co-recorded. The peak intravesical pressure in CMG indicates the contraction of bladder detrusor. The bursting signal in external urethral sphincter EMG is a sign of relaxation of external urethral sphincter. The coordination of bladder and external urethral sphincter was reflected by the synchronization of two signals. […] In chronically injured mice, restoration of reflex external urethral sphincter relaxation correlates with the re-appearance of external urethral sphincter bursting. Therefore, external urethral sphincter bursting is a good indicator of external urethral sphincter functional recovery after SCI in mice.

Compound `Cc1cccc([C@H](C)c2cnc[nH]2)c1C` [Dex, dexmedetomidine hydrochloride] gave a voiding efficiency (n=5, p<0.05 vs. SCI group) of 15.9±6.6%. For the setting “p<0.05 vs. SCI group”, this compound gave a bladder capacity of 0.56 ± 0.31 mL. The “synchronization of bladder CMG and external urethral sphincter EMG signals” value (vs. SCI) is recorded as “enhanced the synchronization”.
